In patent US20090318385A1, “Pyrazolopyride derivative and phosphodiesterase ( pde) inhibitors containing the same as active ingredient” (priority 2006, published 2009):

What was measured:
[1] = test system: total number of leukocytes in bronchoalveolar lavage fluid after LPS inhalation; assay: LPS acute inflammation model in rats; assay type: in vivo; conditions: Rattus norvegicus, Leukocyte, po, 3 mg/kg orally one hour before LPS inhalation, total leukocytes in BALF 3 hours after LPS inhalation, read-out: Inhibition ratio
Protocol: 3 mg/kg of the compounds were orally administered to rats one hour before inhalation of lipopolysaccharide (LPS) from E. coli serotype 055:B5, rats were inhalted nebulizing LPS solution (50 mL) by nebulizer for 30 minutes. Then, 3 hours after the LPS inhalation, rats were euthanized with 20% urethane (5 ml/rat, i.p.) 5 ml of physiological saline for bronchoalveolar lavage was injected into the bronchoalveolar space through the airway, and the bronchoalveolar space was washed 3 times using a 5 mL syringe. This procedure was repeated twice, and the solution was collected as bronchoalveolar lavage fluid (BALF). The collected BALF was centrifuged at 1,200 rpm and 4° C. for 10 minutes (Hirtachi; himac CR 5 DL). The sediment was re-suspended in 10 mL of a 0.1% bovine serum albumin-physiological saline, and an equivalent amount of Turk's solution was added to the suspension to stain leukocytes. The total number of leukocytes was counted under a microscope to determine the inhibition ratio. When the inhibition ratio≧60%, the results were represented by “++.” When 60%>the inhibition ratio≧30%, the results were represented by “+.”

[2] = biological target: T1, PDE4B catalytic domain (Homo sapiens, UniProt Q07343); assay: Phosphodiesterase inhibitory activity (recombinant PDE4Bcat, [3H]cAMP); assay type: biochemical; conditions: 30° C. for 20 minutes, read-out: IC50 (μmol/L) PDE4
T1 construct: The cDNA of PDE4B catalytic domain (hereinafter abbreviated as Cat) was isolated from human RNA by RT-PCR; made in house; host or cells: Sf9 insect cells (baculovirus, Bac-to-Bac)
Text: The cDNA of PDE4B catalytic domain (hereinafter abbreviated as Cat) was isolated from human RNA by RT-PCR. The isolated cDNA fragments were inserted into Sf9 insect cells using Gateway system (product of Invitrogen Corporation) and Bac-to-Bac (registered trademark) Baculovirus Expression system (product of Invitrogen Corporation) to express a target PDE protein. The recombinant PDE4Bcat was purified from the culture supernatants or cell extracts of Sf9 cells expressing high levels of the PDE protein by ion exchange chromatography and was used for the following experiments.
A 4 mmol/L solution of each test compound was serially diluted four-fold with a 15% DMSO solution to prepare solutions with concentrations of 15 nmol/L to 4 mmol/L (the final concentrations used in the experiments were 1.5 nmol/L to 400 μmol/L). 10 μL of the prepared test compound solutions, [^3H] cAMP diluted with a buffer solution (40 mmol/L Tris-HCl (pH: 7.4), 10 mmol/L MgCl2), and 40 μL of the recombinant human PDE protein (2×10^−6 units, 1 unit is defined as the amount of PDE that breaks down 1 μmol/L of cAMP in one minute under the conditions of a pH of 7.5 and 30° C.) were added to a 96-well plate. The mixtures were reacted at 30° C. for 20 minutes. Then, the resultant mixtures were reacted at 65° C. for 2 minutes. Subsequently, […] of 1 mg/mL 5′-nucleotidase (Crotalusatrox venom, product of Sigma) was added to the mixtures, and the mixtures were reacted at 30° C. for 10 minutes. After completion of the reaction, 200 μL of a solution of Dowex (300 mg/mL Dowex 1x8-400 (product of Sigma Aldrich), 33% ethanol) was added to the mixtures, and the mixtures were shaken at 4° C. for 20 minutes. Subsequently, 200 μL of MicroScint 20 (product of Packard) was added to the mixtures, and measurement was performed using a scintillation counter (Topcount, product of Packard). IC50 values were calculated using Graph Pad Prism v3.03 (product of GraphPad Software). When 1 μmol/L>the IC50 value≧0.1 μmol/L, the results were represented by “+.” When 0.1 μmol/L>the IC50 value, the results were represented by “++.”

[3] = test system: histamine-induced bronchoconstriction; assay: Histamine-induced airway contraction reaction in guinea pigs; assay type: in vivo; conditions: test compound 1 mg/kg i.v., histamine 12.5 μg/kg i.v., airflow 30 seconds after administration
Protocol: Guinea pigs were anesthetized with pentobarbital (30 mg/kg, i.p.). A cannula for intravenous administration, a cannula for collecting blood and measuring blood pressure, and a tracheal cannula were inserted into the left external jugular vein, right internal carotid artery, and trachea, respectively. The guinea pigs were maintained on artificial respiration under the conditions of 60 times/min and 10 mL/kg/stroke. The airflow from the side branch of the tracheal cannula was measured by a bronchospasm transducer (Ugo-Basile) and recorded on a computer via Power Lab (ADInstruments Japan). The guinea pigs were immobilized with gallamine (10 mg/kg, i.v.), and histamine was administered at 10-minute intervals (12.5 μg/kg, i.v.). After the histamine-induced bronchoconstriction was constant, one of the test compounds (1 mg/kg, i.v.) dissolved in DMSO was administered. We examined the inhibitory action of test compounds on histamine-induced bronchoconstriction 30 seconds after compounds administration. Bronchoconstriction was recorded as the value of airflow, and the results were represented by the ratio of the maximum value of the histamine-induced airflow 30 seconds after the administration to the maximum value of the airflow before the administration. When the inhibition ratio≧90%, the results were represented by “+++.” When 90%>the inhibition ratio≧70%, the results were represented by “++.” When 70%>the inhibition ratio≧30%, the results were represented by “+.”

T1 sequence (Q07343 330-659 limits assumed): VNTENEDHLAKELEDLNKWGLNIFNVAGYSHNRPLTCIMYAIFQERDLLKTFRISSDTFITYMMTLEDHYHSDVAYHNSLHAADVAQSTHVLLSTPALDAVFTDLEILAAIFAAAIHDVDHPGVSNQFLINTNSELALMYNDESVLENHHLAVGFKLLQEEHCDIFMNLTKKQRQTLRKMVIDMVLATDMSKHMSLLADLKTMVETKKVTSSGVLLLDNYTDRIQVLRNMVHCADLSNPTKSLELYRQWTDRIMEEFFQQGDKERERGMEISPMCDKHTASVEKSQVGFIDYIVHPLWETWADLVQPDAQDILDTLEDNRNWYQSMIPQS

Which results are given for COc1ccc(C=Cc2ccncc2)c2cc(C(F)(F)F)nn12 [Example 78, 7-Methoxy-4-[(2-pyridin-4-yl)vinyl]-2-trifluoromethylpyrazolo[1,5-a]pyridine]?
inhibition in vivo at 3 mg/kg [1]: 30 to 60%; IC50 [2]: < 0.1 µmol/L; Inhibition ratio [3]: + (When 70%>the inhibition ratio≧30%, the results were represented by “+.”)

Which results are given for COc1ccc(CCc2ccncc2)c2cc(C(F)(F)F)nn12 [Example 79, 7-Methoxy-4-[(2-pyridin-4-yl)ethyl]-2-trifluoromethylpyrazolo[1,5-a]pyridine]?
inhibition in vivo at 3 mg/kg [1]: ≥ 60%; IC50 [2]: < 0.1 µmol/L; Inhibition ratio [3]: + (When 70%>the inhibition ratio≧30%, the results were represented by “+.”)

What does the source list for COc1ccc(C(=O)Cc2c(Cl)cncc2Cl)c2cc(C(F)(F)F)nn12 [Example 88, 2-(3,5-Dichloropyridin-4-yl)-1-(7-methoxy-2-trifluoromethylpyrazolo[1,5-a]pyridin-4-yl)ethanone]?
inhibition in vivo at 3 mg/kg [1]: ≥ 60%; IC50 [2]: < 0.1 µmol/L; Inhibition ratio [3]: ++ (When 90%>the inhibition ratio≧70%, the results were represented by “++.”)

Which results are given for COc1ccc(/C=C/c2c(Cl)cncc2Cl)c2cc(C(F)(F)F)nn12 [Example 89, (E)-4-[2-(3,5-dichloropyridin-4-yl)vinyl]-7-methoxy-2-trifluoromethylpyrazolo[1,5-a]pyridine]?
inhibition in vivo at 3 mg/kg [1]: 30 to 60%; IC50 [2]: < 0.1 µmol/L; Inhibition ratio [3]: + (When 70%>the inhibition ratio≧30%, the results were represented by “+.”)
